Columns and labels:
[1] = Inhibition of Hepatitis C virus genotype 1a H77 replicon NS5A transfected in human HuH7 cells assessed as decrease in replication of viral replicon after 4 days by luciferase reporter gene assay; format: cell-based, Hepatitis C virus (isolate H77); conditions: Huh-7, 96 h
[2] = Inhibition of Hepatitis C virus genotype 1b Con1 replicon NS5A transfected in human HuH7 cells assessed as decrease in replication of viral replicon after 4 days by luciferase reporter gene assay; format: cell-based, Hepatitis C virus (isolate Con1); conditions: Huh-7, 96 h
[3] = Inhibition of Hepatitis C virus genotype 2a replicon NS5A transfected in human HuH7 cells assessed as decrease in replication of viral replicon after 4 days by luciferase reporter gene assay; format: cell-based, Hepatitis C virus subtype 2a; conditions: Huh-7, 96 h
[4] = Inhibition of Hepatitis C virus genotype 2b replicon NS5A transfected in human HuH7 cells assessed as decrease in replication of viral replicon after 4 days by luciferase reporter gene assay; format: cell-based, Hepatitis C virus subtype 2b; conditions: Huh-7, 96 h
[5] = Inhibition of Hepatitis C virus genotype 3a replicon NS5A transfected in human HuH7 cells assessed as decrease in replication of viral replicon after 4 days by luciferase reporter gene assay; format: cell-based, Hepatitis C virus subtype 3a; conditions: Huh-7, 96 h
[6] = Inhibition of Hepatitis C virus genotype 4a replicon NS5A transfected in human HuH7 cells assessed as decrease in replication of viral replicon after 4 days by luciferase reporter gene assay; format: cell-based, Hepatitis C virus subtype 4a; conditions: Huh-7, 96 h
[7] = Inhibition of Hepatitis C virus genotype 6a replicon NS5A transfected in human HuH7 cells assessed as decrease in replication of viral replicon after 4 days by luciferase reporter gene assay; format: cell-based, Hepatitis C virus subtype 6a; conditions: Huh-7, 96 h
[8] = Cmax in CD1 mouse at 3 mg/kg, po after 0.25 to 24 hrs; format: ADME, organism-based; set-up: dose 3 mg/kg, route oral; conditions: in vivo
[9] = AUC in CD1 mouse at 3 mg/kg, po after 0.25 to 24 hrs; format: ADME, organism-based; set-up: time upper 24 hr, dose 3 mg/kg, time lower 0.25 hr, route oral; conditions: in vivo
[10] = Half life in CD1 mouse at 15 mg/kg, po after 0.25 to 24 hrs; format: ADME, organism-based; conditions: in vivo
[11] = Cmax in CD1 mouse at 15 mg/kg, po after 0.25 to 24 hrs; format: ADME, organism-based; set-up: dose 15 mg/kg, route oral; conditions: in vivo
[12] = AUC in CD1 mouse at 15 mg/kg, po after 0.25 to 24 hrs; format: ADME, organism-based; set-up: time lower 0.25 hr, dose 15 mg/kg, time upper 24 hr, route oral; conditions: in vivo
[13] = Half life in CD1 mouse at 3 mg/kg, po after 0.25 to 24 hrs; format: ADME, organism-based; conditions: in vivo
[14] = Inhibition of Hepatitis C virus genotype 1a H77 replicon NS5A transfected in human HuH7 cells assessed as decrease in replication of viral replicon in presence of 40% human plasma after 4 days by luciferase reporter gene assay; format: cell-based, Hepatitis C virus (isolate H77); conditions: Huh-7, Plasma, 96 h
[15] = Inhibition of Hepatitis C virus genotype 1b Con1 replicon NS5A transfected in human HuH7 cells assessed as decrease in replication of viral replicon in presence of 40% human plasma after 4 days by luciferase reporter gene assay; format: cell-based, Hepatitis C virus (isolate Con1); conditions: Huh-7, Plasma, 96 h
[16] = Cmax in Sprague-Dawley rat at 3 mg/kg, po administered via gavage after 0.25 to 24 hrs; format: ADME, organism-based; set-up: dose 3 mg/kg, route oral; conditions: in vivo
[17] = AUC in Sprague-Dawley rat at 3 mg/kg, po administered via gavage after 0.25 to 24 hrs; format: ADME, organism-based; set-up: time upper 24 hr, dose 3 mg/kg, time lower 0.25 hr, route oral; conditions: in vivo
[18] = Inhibition of Hepatitis C virus genotype 1a H77 replicon NS5A Q30R mutant transfected in human HuH7 cells assessed as decrease in replication of viral replicon after 4 days by luciferase reporter gene assay; format: cell-based, Hepatitis C virus (isolate H77); conditions: Huh-7, 96 h
[19] = test system: Hepatitis C virus (isolate H77); assay: Resistance ratio of EC50 for Hepatitis C virus genotype 1a H77 replicon NS5A M28T mutant to EC50 for Hepatitis C virus genotype 1a H77 replicon NS5A
[20] = test system: Hepatitis C virus (isolate H77); assay: Resistance ratio of EC50 for Hepatitis C virus genotype 1a H77 replicon NS5A Q30R mutant to EC50 for Hepatitis C virus genotype 1a H77 replicon NS5A
[21] = test system: Hepatitis C virus (isolate H77); assay: Resistance ratio of EC50 for Hepatitis C virus genotype 1a H77 replicon NS5A Y93C mutant to EC50 for Hepatitis C virus genotype 1a H77 replicon NS5A
[22] = test system: Hepatitis C virus (isolate H77); assay: Resistance ratio of EC50 for Hepatitis C virus genotype 1a H77 replicon NS5A Y93H mutant to EC50 for Hepatitis C virus genotype 1a H77 replicon NS5A
[23] = Half life in beagle dog at 2.5 mg/kg, po administered via gavage after 0.25 to 24 hrs; format: ADME, organism-based, Canis lupus familiaris; conditions: in vivo
[24] = Half life in CD1 mouse at 30 mg/kg, po after 0.25 to 24 hrs; format: ADME, organism-based; conditions: in vivo
[25] = Cmax in beagle dog at 2.5 mg/kg, po administered via gavage after 0.25 to 24 hrs; format: ADME, organism-based, Canis lupus familiaris; set-up: dose 2.5 mg/kg, route oral; conditions: in vivo
[26] = Cmax in CD1 mouse at 30 mg/kg, po after 0.25 to 24 hrs; format: ADME, organism-based; set-up: dose 30 mg/kg, route oral; conditions: in vivo
[27] = AUC in beagle dog at 2.5 mg/kg, po administered via gavage after 0.25 to 24 hrs; format: ADME, organism-based, Canis lupus familiaris; set-up: dose 2.5 mg/kg, time 0.25-24 hr, route oral; conditions: in vivo
[28] = AUC in CD1 mouse at 30 mg/kg, po after 0.25 to 24 hrs; format: ADME, organism-based; set-up: time lower 0.25 hr, dose 30 mg/kg, time upper 24 hr, route oral; conditions: in vivo
[29] = Half life in Sprague-Dawley rat at 3 mg/kg, po administered via gavage after 0.25 to 24 hrs; format: ADME, organism-based; conditions: in vivo

| Structure (SMILES) | EC50 [1] | EC50 [2] | EC50 [3] | EC50 [4] | EC50 [5] | EC50 [6] | EC50 [7] | other results |
| --- | --- | --- | --- | --- | --- | --- | --- | --- |
| COC(=O)N[C@H](C(=O)N1CCC[C@H]1c1nc2c(F)c(-c3ccc(-c4ccc5[nH]c([C@@H]6CCCN6C(=O)[C@@H](NC(=O)OC)C(C)C)nc5c4F)cc3)ccc2[nH]1)C(C)C | 0.129 nM | 0.013 nM | 40.2 nM | 0.222 nM | 0.645 nM | 0.33 nM | 4.75 nM | – |
| COC(=O)N[C@H](C(=O)N1CCC[C@H]1c1nc2cc([C@H]3CC[C@H](c4cc5[nH]c([C@@H]6CCCN6C(=O)[C@@H](NC(=O)OC)C(C)C)nc5cc4F)N3c3ccc(C(C)(C)C)cc3)c(F)cc2[nH]1)C(C)C | – | – | – | – | – | – | – | Cmax [8]: 630 ng/mL; AUC [9]: 5790 ng·h/mL; half-life [10]: 4.8 h; Cmax [11]: 3180 ng/mL; AUC [12]: 36200 ng·h/mL; half-life [13]: 4.4 h |
| COC(=O)N[C@H](C(=O)N1CCC[C@H]1c1nc2cc([C@H]3CC[C@H](c4cc5nc([C@@H]6CCCN6C(=O)[C@@H](NC(=O)OC)C(C)C)[nH]c5cc4F)N3c3cc(F)c(N4CCCCC4)c(F)c3)c(F)cc2[nH]1)C(C)C | 0.003 to 0.004 nM | 0.007 nM | 0.012 nM | 0.004 nM | 0.006 nM | 0.007 nM | 0.007 nM | EC50 [14]: 0.096 nM; EC50 [15]: 0.153 nM; Cmax [8]: 370 ng/mL; Cmax [16]: 190 ng/mL; AUC [9]: 4410 ng·h/mL; AUC [17]: 2880 ng·h/mL; EC50 [18]: 0.008 nM; Ratio EC50 [19]: 2; Ratio EC50 [20]: 3; Ratio EC50 [21]: 4; Ratio EC50 [22]: 27; half-life [23]: 5.5 h; half-life [24]: 5.5 h; Cmax [25]: 1380 ng/mL; Cmax [26]: 3390 ng/mL; AUC [27]: 17200 ng·h/mL; AUC [28]: 48200 ng·h/mL; half-life [13]: 6.1 h; half-life [29]: 5.8 h |
| COC(=O)N[C@H](C(=O)N1CCC[C@H]1c1nc2cc(-c3ccc(-c4cc5nc([C@@H]6CCCN6C(=O)[C@@H](NC(=O)OC)C(C)C)[nH]c5cc4OC)cc3)c(OC)cc2[nH]1)C(C)C | 25.5 nM | 0.093 nM | > 100 nM | 88.6 nM | > 100 nM | 0.548 nM | > 100 nM | – |
| COC(=O)N[C@H](C(=O)N1CCC[C@H]1c1nc2cc(-c3ccc(-c4cc5nc([C@@H]6CCCN6C(=O)[C@@H](NC(=O)OC)C(C)C)[nH]c5cc4F)cc3)c(F)cc2[nH]1)C(C)C | 0.076 nM | < 0.03 nM | 31 nM | < 0.03 nM | 0.444 nM | 0.008 nM | 0.274 nM | – |
| COC(=O)N[C@H](C(=O)N1CCC[C@H]1c1nc2c(F)c(-c3ccc(-c4c(F)cc5[nH]c([C@@H]6CCCN6C(=O)[C@@H](NC(=O)OC)C(C)C)nc5c4F)cc3)c(F)cc2[nH]1)C(C)C | 0.507 nM | 0.016 nM | 43.1 nM | 0.218 nM | 1.43 nM | 0.077 nM | 17.3 nM | – |
| COC(=O)N[C@H](C(=O)N1CCC[C@H]1c1nc2cc(-c3ccc(-c4cc(C(F)(F)F)c5[nH]c([C@@H]6CCCN6C(=O)[C@@H](NC(=O)OC)C(C)C)nc5c4)cc3)cc(C(F)(F)F)c2[nH]1)C(C)C | 23 nM | 0.107 nM | > 100 nM | > 10 nM | > 100 nM | 1.9 nM | > 10 nM | – |
